Reference: PMC5940854, “Nitrothiophene carboxamides, a novel narrow spectrum antibacterial series: Mechanism of action and Efficacy” (Scientific Reports, 2018)
≈ marks a conversion by molar mass, not a printed value.

What was measured:
[1] = test system: E. coli mdfA knockout strain; assay: MIC, efflux pump knockout mdfA; type: cell-based; details: Escherichia coli, read-out: MIC mdfA
Protocol: (§1) The inoculum used for all the experiments is derived from a single seed lot that is maintained as glycerol stocks at −80 °C and are sub cultured on LB plate for isolated colonies. Single colony of each strain is grown in M9 medium. All test compound stocks and dilutions are prepared in DMSO. Serial two-fold dilutions of compounds are prepared separately, with the concentrations ranging from 2 mg/mL to 0.015 mg/mL. To 150 µl (3–7 × 10^5 CFU/ml) of bacterial culture in 96 well microtitre plates, 3 μL compound from each of the dilutions is added to respective wells to obtain final concentrations ranging from 40 µg/mL to 0.3 µg/mL of the test compounds. Media control, culture control and appropriate reference drug controls are included. […] Growth is monitored by checking absorbance at 600 nm (A600). […] The samples from MIC and above concentrations are plated for MBC (Minimum Bactericidal Concentration). The samples are diluted 1:10 and plated on LB agar plates. […] The killing kinetics is determined by enumerating survivors at various time points following compound exposure. E. coli cells (~10^7 CFU/ml; A600 of 0.1) are treated with various concentrations (40 µg/mL to 0.3 µg/mL) of compounds in a 96-well microtitre plate. […] Data is expressed as the log10 CFU for each drug treatment.

[2] = test system: E. coli yciM knockout strain; assay: MIC, efflux pump knockout yciM; type: cell-based; details: Escherichia coli, read-out: MIC yciM
Protocol: as §1

[3] = test system: E. coli mdtB knockout strain; assay: MIC, efflux pump knockout mdtB; type: cell-based; details: Escherichia coli, read-out: MIC mdtB
Protocol: as §1

[4] = test system: E. coli emrB knockout strain; assay: MIC, efflux pump knockout emrB; type: cell-based; details: Escherichia coli, read-out: MIC emrB
Protocol: as §1

[5] = test system: E. coli acrD knockout strain; assay: MIC, efflux pump knockout acrD; type: cell-based; details: Escherichia coli, read-out: MIC acrD
Protocol: as §1

[6] = test system: E. coli mdtL knockout strain; assay: MIC, efflux pump knockout mdtL; type: cell-based; details: Escherichia coli, read-out: MIC mdtL
Protocol: as §1

[7] = test system: E. coli emrY knockout strain; assay: MIC, efflux pump knockout emrY; type: cell-based; details: Escherichia coli, read-out: MIC emrY
Protocol: as §1

[8] = test system: E. coli hsrA knockout strain; assay: MIC, efflux pump knockout hsrA; type: cell-based; details: Escherichia coli, read-out: MIC hsrA
Protocol: as §1

[9] = test system: E. coli bcr knockout strain; assay: MIC, efflux pump knockout bcr; type: cell-based; details: Escherichia coli, read-out: MIC bcr
Protocol: as §1

E. coli ∆acrB JW0451-2 = assay: Neutropenic thigh infection, E. coli ∆acrB; type: in vivo, BALB/c mice
[10] = test system: Shigella flexneri clinical strain; assay: MIC, Shigella flexneri; type: cell-based
Protocol: as §1

Q: Which results are given for `Cc1sc(NC(=O)c2ccc([N+](=O)[O-])s2)nc1-c1ccccc1` [compound 7, N-(5-Methyl-4-phenylthiazol-2-yl)-5-nitrothiophene-2-carboxamide]?
A: MIC [1]: > 40 µg/mL; MIC [2]: > 40 µg/mL; MIC [3]: > 40 µg/mL; MIC [4]: > 40 µg/mL; MIC [5]: > 40 µg/mL; MIC [6]: > 40 µg/mL; MIC [7]: > 40 µg/mL; MIC [8]: > 40 µg/mL; MIC [9]: > 40 µg/mL

Q: How did the “efficacy in thigh infection model (in words)” value (E. coli ∆acrB JW0451-2; E. coli ∆acrB JW0451-2) turn out when `O=C(Nc1nc(-c2ccc(F)cc2)cs1)c1ccc([N+](=O)[O-])s1` [compound 15, N-(4-(4-Fluorophenyl)thiazol-2-yl)-5-nitrothiophene-2-carboxamide] was run?
A: significantly bactericidal

Q: And the “Log10CFU Mean Diff. vs. Untreated Controls” value (E. coli ∆acrB JW0451-2; Study TI-2014-007, ∆acrB JW0451-2, 10mg/kg per oral)?
A: 0.2933 Log10CFU

Q: And the “Log10CFU Mean Diff. vs. Untreated Controls” value (E. coli ∆acrB JW0451-2; Study TI-2014-007, ∆acrB JW0451-2, 30mg/kg per oral)?
A: 1.943 Log10CFU

Q: And the “Log10CFU Mean Diff. vs. Untreated Controls” value (E. coli ∆acrB JW0451-2; Study TI-2014-007, ∆acrB JW0451-2, 100mg/kg per oral, 6 hours post treatment)?
A: 2.436 Log10CFU

Q: And the “Log10CFU Mean Diff. vs. Untreated Controls” value (E. coli ∆acrB JW0451-2; Study TI-2014-008, ∆acrB JW0451-2, 30mg/kg per oral)?
A: 1.497 Log10CFU

Q: What about the “Log10CFU Mean Diff. vs. Untreated Controls” value (E. coli ∆acrB JW0451-2; Study TI-2014-008, ∆acrB JW0451-2, 100mg/kg per oral) of the same compound?
A: 2.253 Log10CFU

Q: Which MIC Shigella flexneri [10] does the source give for `O=C(Nc1nc(-c2ccc(F)cc2F)cs1)c1ccc([N+](=O)[O-])s1` [compound 12, N-(4-(2,4-difluorophenyl)thiazol-2-yl)-5-nitrothiophene-2-carboxamide] here?
A: 10 µg/mL (≈ 27.2 µM)
